Consider 3 compounds from ChEMBL document CHEMBL2380203, “Structure-activity relationship of cytochrome bc1 reductase inhibitor broad spectrum antifungal ilicicolin H” (Bioorg Med Chem Lett, 2013).

Assay [1] is described as follows: Selectivity ratio of IC50 for Candida albicans MY1055 NADH:cytochrome bc1 reductase to IC50 for rat liver NADH:cytochrome bc1 reductase.
For assay [2], the system named is Candida albicans. Put plainly: Ratio of MIC for Candida albicans MY1055 in presence of 10% mouse plasma to MIC for Candida albicans MY1055 in absence of mouse plasma. Format: functional.
Assay [3] deals with Candida albicans. As to the kind of experiment: Antifungal activity against Candida albicans MY1055 assessed as growth inhibition after 24 hrs by liquid microdilution assay in presence of 10% mouse plasma. Format: functional.
Assay [4] can be described thus: Inhibition of Candida albicans MY1055 NADH:cytochrome bc1 reductase in presence of 40% mouse plasma. Format: cell-free.
For assay [5], the system named is Candida albicans. Put plainly: Ratio of IC50 for Candida albicans MY1055 NADH:cytochrome bc1 reductase in presence of 40% mouse plasma to IC50 for Candida albicans MY1055 NADH:cytochrome bc1 reductase in absence of mouse plasma.
Assay [6] is described as follows: Inhibition of rat liver NADH:cytochrome bc1 reductase.
A short description of assay [7]: Inhibition of Candida albicans MY1055 NADH:cytochrome bc1 reductase.
Assay [8] has as its system Candida albicans. As to the kind of experiment: Antifungal activity against Candida albicans MY1055 assessed as growth inhibition after 24 hrs by liquid microdilution assay. Format: functional. The note with it: MY1055, 24 h.
In assay [9] the test system is Candida albicans. As to the kind of experiment: Antifungal activity against Candida albicans MY1055 assessed as growth inhibition after 24 hrs by liquid microdilution assay in presence of 10% mouse plasma.

Values after ≈ are worked out from the molar mass of the structure shown.

Regarding `C/C=C/[C@@H]1[C@H]2C[C@@H](C)CC[C@@H]2C(C)=C[C@H]1C(=O)c1c(O)c(-c2ccc(O)cc2)c[nH]c1=O` [ILICICOLIN H], the results for the Ratio IC50 (in [1]; with Candida albicans [5]) were > 1000 and 140, respectively. For the same compound, the Ratio in the assay with Candida albicans [2] is reported as >25. The MIC in the assay on Candida albicans [3] is > 1 µg/mL; with Candida albicans [8] it was 0.02 µg/mL (≈ 0.0461 µM). Besides, the IC50 in [4] was found to be 0.07 µg/mL; in [6], 2 µg/mL (≈ 4.61 µM); in assay [7], 0.0005 µg/mL (≈ 0.00115 µM).
As to `CC1=C[C@@H](C(=O)c2c(O)c(-c3ccc(O)cc3)c[nH]c2=O)[C@H]([C@@H]2OC2C)[C@H]2C[C@@H](C)CC[C@H]12` (some centres not stated), the results for the minimal inhibitory concentration (MIC) in the assay on Candida albicans [3], in the assay on Candida albicans [8] and in the assay on Candida albicans [9] were > 1 µg/mL, 0.625 µg/mL (≈ 1.39 µM) and > 1 µg/mL, respectively. In addition, the IC50 in assay [4] worked out at 1 µg/mL; in assay [6] it was 1 µg/mL (≈ 2.22 µM); in assay [7], 0.0052 µg/mL (≈ 0.0116 µM). Further, in the assay with Candida albicans [5], the Ratio IC50 came out at 192.
In the case of `C/C=C/[C@@H]1[C@H]2C[C@@H](C)CC[C@@H]2C(C)=C[C@H]1C(=O)c1c(O)c(-c2ccc(OC(=O)/C=C/c3cnc[nH]3)cc2)c[nH]c1=O`, the Ratio in the assay with Candida albicans [2] was 16. Besides, the values for the MIC with Candida albicans [3] and in the assay with Candida albicans [8] were 1 µg/mL and 0.031 µg/mL (≈ 0.056 µM), respectively. The half-inhibitory concentration (IC50) was determined as 0.15 µg/mL in assay [4], 0.008 µg/mL (≈ 0.0144 µM) in assay [6] and 0.001 µg/mL (≈ 0.00181 µM) in assay [7]. Moreover, the Ratio IC50 with Candida albicans [5] was found to be 43.
